This is an account of results in PubChem BioAssay AID248 (DTP/NCI, 2004).

The structures appear in SMILES notation. “And” between values parts separate entries of the source, which are not always exact repeats. Identical values can stand only once. Toxic doses and inconclusive results are not listed.

The assay concerns L1210 leukemia ip in BDF1 mice, survival T/C. Briefly: NCI In Vivo Anticancer Drug Screen. Data for tumor model L1210 Leukemia (intraperitoneal) in B6D2F1 (BDF1) mice. The conditions noted are these: endpoint: mean survival time, higher = longer survival. The gist of the method:
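Survival endpoint. Drug-treated group vs vehicle group, expressed as T divided by C. Tumor passaged by transplantation.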

[1] abbreviates: dose: 100.0 mg/kg/injection, schedule: Q01DX001 (ip), vehicle: saline with Tween-80.
Where [2] appears, read: dose: 200.0 mg/kg/injection, schedule: Q01DX001 (ip), vehicle: saline with Tween-80.
The mark [3] stands for this setting: dose: 400.0 mg/kg/injection, schedule: Q01DX001 (ip), vehicle: saline with Tween-80.
Setting [4] is: dose: 100.0 mg/kg/injection, schedule: Q01DX001 (ip), vehicle: Klucel (hydroxypropylcellulose) (HPC).
The mark [5] stands for this setting: dose: 200.0 mg/kg/injection, schedule: Q01DX001 (ip), vehicle: Klucel (hydroxypropylcellulose) (HPC).
The mark [6] stands for this setting: dose: 400.0 mg/kg/injection, schedule: Q01DX001 (ip), vehicle: Klucel (hydroxypropylcellulose) (HPC).
[7] abbreviates: dose: 100.0 mg/kg/injection, schedule: Q04DX003 (ip), vehicle: Klucel (hydroxypropylcellulose) (HPC).
Where [8] appears, read: dose: 200.0 mg/kg/injection, schedule: Q04DX003 (ip), vehicle: Klucel (hydroxypropylcellulose) (HPC).
Where [9] appears, read: dose: 100.0 mg/kg/injection, schedule: Q01DX001 (ip), vehicle: saline.
The mark [10] stands for this setting: dose: 200.0 mg/kg/injection, schedule: Q01DX001 (ip), vehicle: saline.

With `[Cl][Pd][Cl].[NH-]C1CCCCC1.[NH-]C1CCCCC1`, the T/C was 94 % of control (dose: 50.0 mg/kg/injection, schedule: Q04DX002 (ip), vehicle: Klucel (hydroxypropylcellulose) (HPC)); 102 % of control (dose: 100.0 mg/kg/injection, schedule: Q04DX002 (ip), vehicle: Klucel (hydroxypropylcellulose) (HPC)); 87 % of control (dose: 200.0 mg/kg/injection, schedule: Q04DX002 (ip), vehicle: Klucel (hydroxypropylcellulose) (HPC)).

Consider `O=C(Nc1c(Oc2ccc(Cl)c(Cl)c2)ccc(Cl)c1S(=O)(=O)O)Nc1c(Oc2ccc(Cl)c(Cl)c2)ccc(Cl)c1S(=O)(=O)O`, for which the T/C by setting is: (dose: 75.0 mg/kg/injection, schedule: Q01DX001 (ip), vehicle: saline) 101 % of control; (dose: 150.0 mg/kg/injection, schedule: Q01DX001 (ip), vehicle: saline) 99 % of control; (dose: 300.0 mg/kg/injection, schedule: Q01DX001 (ip), vehicle: saline) 96 % of control.

For `CCC(=O)OCc1cc2ccccc2c(-c2c(OC(=O)CC)c(COC(=O)CC)cc3ccccc23)c1OC(=O)CC`, the T/C is, setting by setting: under setting [1], 106 % of control; under setting [2], 113 % of control; under setting [3], 88 % of control.

With `O=C(NCCCCCCNC(=O)N(O)C12CC3CC(CC(C3)C1)C2)N(O)C12CC3CC(CC(C3)C1)C2`, the T/C is 95 % of control under setting [4], 90 % of control under setting [5] and 90 % of control under setting [6].

On to `CC(C)c1cc(CN(C)C)cc(C(C)C)c1O`, for which the T/C under setting [7] is 95 % of control and the T/C under setting [8] was 102 % of control.

As to `O=C(/C=C/c1ccc2c(c1)OCO2)c1ccc2ccccc2c1`, the T/C is 103 % of control (dose: 100.0 mg/kg/injection, schedule: Q04DX002 (ip), vehicle: gum acacia); 96 % of control (dose: 200.0 mg/kg/injection, schedule: Q04DX002 (ip), vehicle: gum acacia); 92 % of control (dose: 400.0 mg/kg/injection, schedule: Q04DX002 (ip), vehicle: gum acacia).

For the compound `CC1(C)CN(Cc2ccc(Cl)cc2)C1=O`, the T/C (dose: 44.0 mg/kg/injection, schedule: Q01DX001 (ip), vehicle: other) is 97 % of control; the T/C (dose: 44.0 mg/kg/injection, schedule: Q01DX009 (ip), vehicle: saline with Tween-80) is 90 % of control; the T/C (dose: 44.0 mg/kg/injection, schedule: Q04DX003 (ip), vehicle: other) was 96 % of control; the T/C (dose: 50.0 mg/kg/injection, schedule: Q04DX002 (ip), vehicle: other) is 154 % of control; the T/C (dose: 66.0 mg/kg/injection, schedule: Q01DX001 (ip), vehicle: other) was 100 % of control; the T/C (dose: 66.0 mg/kg/injection, schedule: Q01DX009 (ip), vehicle: saline with Tween-80) is 89 % of control. Further, the T/C reads like this: (dose: 66.0 mg/kg/injection, schedule: Q04DX003 (ip), vehicle: other) 101 % of control; (dose: 100.0 mg/kg/injection, schedule: Q01DX001 (ip), vehicle: other) 96 % of control; (dose: 100.0 mg/kg/injection, schedule: Q01DX009 (ip), vehicle: saline with Tween-80) 91 % of control; (dose: 100.0 mg/kg/injection, schedule: Q04DX002 (ip), vehicle: other) 92 % of control and 113 % of control; (dose: 100.0 mg/kg/injection, schedule: Q04DX003 (ip), vehicle: other) 100 % of control; (dose: 150.0 mg/kg/injection, schedule: Q01DX001 (ip), vehicle: other) 98 % of control. Besides, the T/C is 92 % of control (dose: 150.0 mg/kg/injection, schedule: Q01DX009 (ip), vehicle: saline with Tween-80); 103 % of control (dose: 150.0 mg/kg/injection, schedule: Q04DX003 (ip), vehicle: other); 100 % of control (dose: 225.0 mg/kg/injection, schedule: Q01DX001 (ip), vehicle: other); 93 % of control (dose: 225.0 mg/kg/injection, schedule: Q01DX009 (ip), vehicle: saline with Tween-80); 96 % of control (dose: 225.0 mg/kg/injection, schedule: Q04DX003 (ip), vehicle: other); 95 % of control and 103 % of control (dose: 400.0 mg/kg/injection, schedule: Q04DX002 (ip), vehicle: other).

As for `CCN(CC)C(=O)C1CC=CCC1` (centres undefined), the T/C runs as follows: (dose: 100.0 mg/kg/injection, schedule: Q04DX002 (ip), vehicle: saline) 96 % of control; (dose: 200.0 mg/kg/injection, schedule: Q04DX002 (ip), vehicle: saline) 107 % of control; (dose: 400.0 mg/kg/injection, schedule: Q04DX002 (ip), vehicle: saline) 93 % of control.

For the compound `CCOC(=O)C1(CCCN2C(=O)c3ccccc3C2=O)CC(C(=O)OCC)(C(=O)OCC)CCC1=O` (centres undefined), the T/C runs as follows: (dose: 100.0 mg/kg/injection, schedule: Q04DX002 (ip), vehicle: saline with Tween-80) 94 % of control; (dose: 200.0 mg/kg/injection, schedule: Q04DX002 (ip), vehicle: saline with Tween-80) 100 % of control.

On to `CC(=O)Nc1ccc(OC(=O)Oc2ccc(NC(C)=O)cc2)cc1`, for which the T/C was 101 % of control (dose: 50.0 mg/kg/injection, schedule: Q01DX001 (ip), vehicle: saline); 97 % of control under setting [9]; 95 % of control under setting [10]; 95 % of control (dose: 400.0 mg/kg/injection, schedule: Q01DX001 (ip), vehicle: saline).

Regarding `CCOc1ccc(-n2c(=O)c(N=Nc3ccccc3OC)c(O)n(-c3ccccc3OC)c2=S)cc1`, the T/C is, setting by setting: (dose: 50.0 mg/kg/injection, schedule: Q01DX001 (ip), vehicle: Klucel (hydroxypropylcellulose) (HPC)) 91 % of control; under setting [4], 100 % of control; under setting [5], 87 % of control.

Consider `CCCCCNC(C)=O`, for which the T/C (dose: 200.0 mg/kg/injection, schedule: Q01DX009 (ip), vehicle: saline) is 108 % of control.

For the compound `O=C1SCCC1NP(=O)(OCc1ccccc1)OCc1ccccc1` (centres undefined), the T/C under setting [1] is 102 % of control, the T/C under setting [2] is 102 % of control and the T/C under setting [3] was 98 % of control.

Consider `CC(=O)OCC1OC(NC(=O)NCCCl)C(OC(C)=O)C(OC(C)=O)C1OC(C)=O` (centres undefined), for which the T/C under setting [4] is 101 % of control, the T/C under setting [5] is 104 % of control and the T/C under setting [6] was 104 % of control.

On to `NCC(O)c1cccc(O)c1` (centres undefined), for which the T/C is 105 % of control (dose: 50.0 mg/kg/injection, schedule: Q01DX001 (ip), vehicle: carboxymethylcellulose (CMC)); 94 % of control (dose: 100.0 mg/kg/injection, schedule: Q01DX001 (ip), vehicle: carboxymethylcellulose (CMC)); 100 % of control (dose: 200.0 mg/kg/injection, schedule: Q01DX001 (ip), vehicle: carboxymethylcellulose (CMC)); 100 % of control (dose: 400.0 mg/kg/injection, schedule: Q01DX001 (ip), vehicle: carboxymethylcellulose (CMC)).

Turning to `Cc1cccc(Cl)c1N=C=O`, the T/C runs as follows: under setting [9], 102 % of control; under setting [10], 102 % of control.

Regarding `CCN(Cc1ccccc1)c1nnnn1-c1ccccc1`, the T/C (dose: 100.0 mg/kg/injection, schedule: Q04DX003 (ip), vehicle: saline) was 96 % of control; the T/C (dose: 200.0 mg/kg/injection, schedule: Q04DX003 (ip), vehicle: saline) is 103 % of control; the T/C (dose: 400.0 mg/kg/injection, schedule: Q04DX003 (ip), vehicle: saline) is 98 % of control.

Turning to `CCCCCCCCCCCCNC(=O)Nc1cccc(C)c1C`, the T/C is 89 % of control (dose: 100.0 mg/kg/injection, schedule: Q01DX009 (ip), vehicle: Klucel (hydroxypropylcellulose) (HPC)); 98 % of control under setting [7]; 100 % of control (dose: 200.0 mg/kg/injection, schedule: Q01DX009 (ip), vehicle: Klucel (hydroxypropylcellulose) (HPC)); 95 % of control under setting [8]; 89 % of control (dose: 400.0 mg/kg/injection, schedule: Q01DX009 (ip), vehicle: Klucel (hydroxypropylcellulose) (HPC)); 95 % of control (dose: 400.0 mg/kg/injection, schedule: Q04DX003 (ip), vehicle: Klucel (hydroxypropylcellulose) (HPC)).
